Measured values as given in patent US20260055077A1, “PROTEIN DEGRADATION AGENT” (SUZHOU KINTOR PHARMACEUTICALS, INC., priority 2022, published 2026).

Experiments:
Format in all cases: cell-based
HL60 cells = assay: Anti-proliferation ability of compounds on HL60 cells (CellTiter-Glo); conditions: Homo sapiens, HL-60, 72 h, incubated 3 days, CTG luminescence, IC50 calculated by XLfit
Procedure: • I. Anti-proliferation ability of compounds on HL60 cells • Activity test methods: • 1. Cell plating • HL60 cells in the logarithmic growth phase were counted and plated evenly in a 96-well transparent bottom white plate at 20000 cells per well and […] per well. • 2. Drug addition to cells • A certain amount of the compounds was weighed and diluted with DMSO to a 10 mM stock solution. The culture mediums corresponding to the cells were taken, and the drugs were diluted to the concentration required by the test, shaken gently and mixed evenly. 50 μl of the gradient dilution of the diluted compound was added to each well of the plated cells, and 50 μl of 0.1% DMSO was added to the control group. The plate was shaken gently, mixed evenly and incubated in a cell culture incubator for 3 days. • 3. CTG detection • 3.1 The CellTiter-Glo™ (CTG) reagent was taken in advance from the −20° C. refrigerator and equilibrated to room temperature in the dark. • 3.2 The 96-well plate was taken out and inspected under a microscope for growth situation. • 3.3 The bottom of the 96-well plate was tagged with white paper, and then the plate was wrapped with tin foil paper, shaken at 37° C. at 300 r for 10 mina and mixed evenly. • 3.4 50 ul of CTG detection reagent was added to each well, Luminescence signal was detected using a microplate reader, and the inhibition rate was calculated. IC50 values of the compounds were calculated by XLfit software to evaluate the proliferation inhibitory activity on 11160 cells.

c-Myc = molecular target: T1, c-Myc (Homo sapiens, UniProt P01106); assay: Protein degradation experiment (Western blot), c-Myc in HL60 cells; conditions: 6 h of drug treatment, FIG. 1, at lower concentration (about 3 μm to 10 nmn)
T1 construct: endogenous in cells; host or cells: HL60 (human acute promyelocytic leukemia cells)
Procedure: (§1) Cell culture conditions: The cells in the embodiments of the invention were purchased from Shanghai Cell Bank, Chinese Academy of Sciences. Human acute promyelocytic leukemia cells (HL60 cells) were cultured in RPMI-1640 (meilunbio, MA0215)^+20% FBS(manufacturer: Bi, product number: 04-001-1ACS)^+1% penicillin/streptomycin (manufacturer: Hyclone, product number: SH40003.01). The cell culture conditions were 5% CO2 and […]. When the cell coverage reached about 80%, the cells were passaged at a ratio of 1:3.
(§2) 2. Cell drug treatment and protein extraction 2.1 Cell treatment
(§3) The designated cells in the exponential growth phase were digested and plated into a 6-well plate at 1 10^6 cells per well. […]
(§4) By using the BCA protein concentration determination kit (from Thermo Fisher, Cat. No. 23225), the BSA standard determination solution and the supernatant in 2.2 to be tested (the supernatant can be diluted and then tested) were prepared according to the table 2 below. […] The plate was placed at 60′C for 10 min, and then the absorbance at 562 nim was detected. After the reading was recorded, a standard curve was plotted using concentration gradients of the standards, and the absorbance of the samples was substituted to calculate the protein concentration of the samples. […]

GSPT1 = molecular target: T2, GSPT1 (Homo sapiens, UniProt P15170); assay: Protein degradation experiment (Western blot), GSPT1 in HL60 cells; conditions: 6 h of drug treatment, FIG. 1, at lower concentration (about 3 μm to 10 nmn)
T2 construct: endogenous in cells; host or cells: HL60 (human acute promyelocytic leukemia cells)
Procedure: as §1, §2, §3, §4

T2 sequence (P15170 whole entry): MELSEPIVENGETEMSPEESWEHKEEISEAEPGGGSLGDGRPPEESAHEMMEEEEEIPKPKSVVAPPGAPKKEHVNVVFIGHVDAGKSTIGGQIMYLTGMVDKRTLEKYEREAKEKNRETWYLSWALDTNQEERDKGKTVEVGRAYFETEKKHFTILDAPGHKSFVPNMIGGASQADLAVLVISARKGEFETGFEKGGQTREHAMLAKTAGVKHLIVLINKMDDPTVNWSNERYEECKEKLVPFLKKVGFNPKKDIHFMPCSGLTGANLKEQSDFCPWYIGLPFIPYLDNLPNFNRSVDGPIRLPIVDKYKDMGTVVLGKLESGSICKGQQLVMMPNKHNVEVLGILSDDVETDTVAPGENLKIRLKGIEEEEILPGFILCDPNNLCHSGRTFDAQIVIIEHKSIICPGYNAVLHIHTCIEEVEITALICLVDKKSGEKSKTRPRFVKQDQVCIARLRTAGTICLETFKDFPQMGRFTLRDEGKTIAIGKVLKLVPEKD
T1 sequence (P01106 whole entry): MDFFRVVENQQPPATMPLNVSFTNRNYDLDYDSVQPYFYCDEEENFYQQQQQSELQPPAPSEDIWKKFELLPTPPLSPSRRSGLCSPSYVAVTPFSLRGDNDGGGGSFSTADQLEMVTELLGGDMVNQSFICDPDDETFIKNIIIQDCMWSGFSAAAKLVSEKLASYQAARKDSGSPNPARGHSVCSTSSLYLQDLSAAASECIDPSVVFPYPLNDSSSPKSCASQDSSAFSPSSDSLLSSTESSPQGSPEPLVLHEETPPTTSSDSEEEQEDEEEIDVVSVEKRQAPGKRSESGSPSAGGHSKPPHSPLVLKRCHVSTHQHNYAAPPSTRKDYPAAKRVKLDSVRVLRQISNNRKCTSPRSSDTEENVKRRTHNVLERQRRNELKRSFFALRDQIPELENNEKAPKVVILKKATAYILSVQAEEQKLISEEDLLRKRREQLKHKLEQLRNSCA

SMILES	IC50 (HL60 cells) [nM]	degradation of e-Myc (c-Myc) protein in HL60 cells (c-Myc)	degradation of GSPT1 protein in HL60 cells (GSPT1)
O=C1CCC(N2Cc3cc(C(=O)NCc4ccc(CN(CCc5cccc6ccccc56)C(=O)CS)cc4)ccc3C2=O)C(=O)N1 (stereo not shown) [KT-042]	34 ± 7	–	–
Cc1ccc(N2CCN(Cc3ccc(C(=O)NCc4ccc5c(c4)CN(C4CCC(=O)NC4=O)C5=O)cc3)C(CO)C2)cc1Cl (stereo not shown) [KT-022]	1.03 ± 0.19	–	–
CN(CCc1ccccc1)Cc1ccc(C(=O)NCc2ccc3c(c2)CN(C2CCC(=O)NC2=O)C3=O)c(O)c1 (stereo not shown) [KT-034]	9.9 ± 3	–	–
O=C1CCC(N2Cc3cc(C(=O)NCc4ccc(CN(CCc5ccccc5)C(=O)NCCO)cc4)ccc3C2=O)C(=O)N1 (stereo not shown) [KT-015]	24.2 ± 10.1	–	–
CC(=O)c1ccc(N2CCN(Cc3ccc(C(=O)NCc4ccc5c(c4)CN(C4CCC(=O)NC4=O)C5=O)cc3)CC2)cc1Cl (stereo not shown) [KT-041]	< 3.04	–	–
O=C1CCC(N2Cc3cc(NC(=O)CC4CCN(c5ncc(Br)cc5CO)CC4)ccc3C2=O)C(=O)N1 (stereo not shown) [KT-026]	23 ± 3	–	–
O=C(Cn1c2ccccc2c2cccnc21)NCc1ccc(CNC(=O)c2ccc3c(c2)CN(C2CCC(=O)NC2=O)C3=O)c(OCCO)c1 (stereo not shown) [KT-006]	2.19 ± 1.5	–	–
O=C1CCC(N2Cc3cc(C(=O)NCc4ccc(CN(CCc5ccccc5)C(=O)CCO)cc4)ccc3C2=O)C(=O)N1 (stereo not shown) [KT-033]	6 ± 1.6	–	–
O=C1CCC(N2Cc3cc(C(=O)NCc4ccc(CN(CCO)CCc5cccc6ccccc56)cc4)ccc3C2=O)C(=O)N1 (stereo not shown) [KT-003]	0.71 ± 0.04	–	–
NCc1cc(-c2cccc3cccnc23)cnc1N1CCC(CC(=O)Nc2ccc3c(c2)CN(C2CCC(=O)NC2=O)C3=O)CC1 (stereo not shown) [KT-029]	0.57 ± 0.1	–	–

Other lines, results leading:

IC50 (HL60 cells) [nM]	degradation of e-Myc (c-Myc) protein in HL60 cells (c-Myc)	degradation of GSPT1 protein in HL60 cells (GSPT1)	SMILES
< 3.04	–	–	O=C1CCC(N2Cc3cc(C(=O)NCc4ccc(CNCCc5cccc6ccccc56)cc4)ccc3C2=O)C(=O)N1 (stereo not shown) [KT-025]
10.5 ± 0.4	–	–	O=C1CCC(N2Cc3cc(CNC(=O)c4ccc(CN5CCN(c6ccc(O)c(Cl)c6)CC5)cc4)ccc3C2=O)C(=O)N1 (stereo not shown) [KT-017]
3.45 ± 0.52	–	–	CN(Cc1ccc(C(=O)NCc2ccc3c(c2)CN(C2CCC(=O)NC2=O)C3=O)cc1)CC(O)c1ccccc1 (stereo not shown) [KT-013]
< 0.34	–	–	O=C1CCC(N2Cc3cc(NC(=O)CC4CCN(c5ncc(-c6cccc7cccnc67)cc5CO)CC4)ccc3C2=O)C(=O)N1 (stereo not shown) [KT-028]
< 3.04	completely degrade	completely degrade	O=C1CCC(N2Cc3cc(C(=O)NCc4ccc(CN(CCO)CCc5ccc(Cl)c(Cl)c5)cc4)ccc3C2=O)C(=O)N1 (stereo not shown) [KT-002]
< 3.04	–	–	O=C1CCC(N2Cc3cc(C(=O)NCc4ccc(CN(CCO)CCc5ccccc5)cc4)ccc3C2=O)C(=O)N1 (stereo not shown) [KT-001]
2.17 ± 0.78	–	–	O=C1CCC(N2Cc3cc(CNC(=O)c4ccc(CN5CCN(c6ccc(CO)c(Cl)c6)CC5)cc4)ccc3C2=O)C(=O)N1 (stereo not shown) [KT-018]
2.8 ± 0.1	–	–	O=C1CCC(N2Cc3cc(CNC(=O)c4ccc(CN5CCN(c6ccc(OCCO)c(Cl)c6)CC5)cc4)ccc3C2=O)C(=O)N1 (stereo not shown) [KT-019]
1.36 ± 0.67	–	–	Cc1ccc(N2CCN(Cc3ccc(C(=O)NCc4ccc5c(c4)CN(C4CCC(=O)NC4=O)C5=O)c(O)c3)CC2)cc1Cl (stereo not shown) [KT-020]
< 0.34	–	–	O=C1CCC(N2Cc3cc(NC(=O)CC4CCN(c5ncc(-c6nccc7ccccc67)cc5CO)CC4)ccc3C2=O)C(=O)N1 (stereo not shown) [KT-030]
< 0.34	–	–	O=C1CCC(N2Cc3cc(NC(=O)CC4CCN(c5ncc(-c6cccc7cccnc67)cc5OCCO)CC4)ccc3C2=O)C(=O)N1 (stereo not shown) [KT-031]
5620	–	–	NCCOc1cc(-c2cccc3cccnc23)cnc1N1CCC(CC(=O)Nc2ccc3c(c2)CN(C2CCC(=O)NC2=O)C3=O)CC1 (stereo not shown) [KT-032]
3.04 ± 0.84	–	–	O=C1CCC(N2Cc3cc(C(=O)NCc4ccc(CN(Cc5ccccc5)C(=O)CO)cc4)ccc3C2=O)C(=O)N1 (stereo not shown) [KT-016]
